Test results published in ChEMBL document CHEMBL3992552, “Mechanisms of action and structure-activity relationships of cytotoxic flavokawain derivatives” (Bioorg Med Chem, 2017).
pIC50: −log10 of the molar value. The source made the active and inactive calls. The calls are words filed in the database; no cut-off is given here.

system: PC-3; experiment: Cell cycle arrest in human PC3 cells harboring p53 mutant assessed as mitotic index at 10 uM measured after 48 hrs by Hoechst staining based fluorescence assay (reference value: 2.5); assay type: functional; conditions: not given

| SMILES | Activity_index |
| --- | --- |
| COc1cc(OC)c(C(=O)/C=C/c2ccc(F)cc2)c(OC)c1 | 14.6 |

system: Huh-7; experiment: Cell cycle arrest in human HuH7 cells assessed as accumulation at S phase at 25 uM measured after 48 hrs by Hoechst/BrdU staining based fluorescence assay (reference value: 44%); assay type: functional; conditions: not given

| SMILES | Activity |
| --- | --- |
| COc1cc(OC)c(C(=O)/C=C/c2ccc(F)cc2)c(OC)c1 | 1.1% |

system: HCT-116; experiment: Cell cycle arrest in human HCT116 cells assessed as accumulation at G1/S phase by Hoechst staining based fluorescence assay; assay type: functional; conditions: not given

| SMILES | Activity |
| --- | --- |
| COc1cc(OC)c(C(=O)/C=C/c2ccc(F)cc2)c(OC)c1 | Active |

system: Huh-7; experiment: Cytotoxicity against human HuH7 cells assessed as cell survival at 50 uM after 48 hrs by Hoechst 33342 staining based assay relative to control; assay type: functional; conditions: Huh-7, 48 h, read-out: Survival

| SMILES | viability at 50 µM |
| --- | --- |
| COc1cc(OC)c(C(=O)/C=C/c2ccc(F)cc2)c(OC)c1 | 8% |

system: not listed separately; experiment: Selectivity index, ratio of IC50 for human fibroblasts to IC50 for human PC3 cells; conditions: not given

| SMILES | Ratio IC50 |
| --- | --- |
| COc1cc(OC)c(C(=O)/C=C/c2ccc(F)cc2)c(OC)c1 | >9.1 |

system: HaCaT; experiment: Cell cycle arrest in human HaCaT cells assessed as accumulation at M phase by Hoechst staining based fluorescence assay; assay type: functional; conditions: not given

| SMILES | Activity |
| --- | --- |
| COc1cc(OC)c(C(=O)/C=C/c2ccc(F)cc2)c(OC)c1 | Active |

system: HCT-116; experiment: Induction of apoptosis in human HCT116 cells harboring wild-type p53 assessed as increase in cleaved caspase3 at 2 times IC50 after 48 hrs by Hoechst staining based assay; assay type: functional, cell-based; conditions: not given

| SMILES | Activity |
| --- | --- |
| COc1cc(OC)c(C(=O)/C=C/c2ccc(F)cc2)c(OC)c1 | Active |

system: HCT-116; experiment: Cell cycle arrest in human HCT116 cells harboring wild-type p53 assessed as mitotic index at 10 uM measured after 48 hrs by Hoechst staining based fluorescence assay (reference value: 2.3); assay type: functional; conditions: not given

| SMILES | Activity_index |
| --- | --- |
| COc1cc(OC)c(C(=O)/C=C/c2ccc(F)cc2)c(OC)c1 | 1.3 |

system: NCI-H727; experiment: Cell cycle arrest in human NCI-H727 cells assessed as accumulation at G1/S phase by Hoechst staining based fluorescence assay; assay type: functional; conditions: not given

| SMILES | Activity |
| --- | --- |
| COc1cc(OC)c(C(=O)/C=C/c2ccc(F)cc2)c(OC)c1 | Active |

system: Caco-2; experiment: Cytotoxicity against human Caco2 cells assessed as cell viability after 48 hrs by Hoechst 33342 staining based assay; assay type: functional; conditions: Caco-2, 48 h

| SMILES | pIC50 |
| --- | --- |
| COc1cc(OC)c(C(=O)/C=C/c2ccc(F)cc2)c(OC)c1 | 5.26 |

system: not listed separately; experiment: Cytotoxicity against human fibroblasts assessed as cell survival at 50 uM after 48 hrs by Hoechst 33342 staining based assay relative to control; parameters: species or system Fibroblast; conditions: read-out: Survival

| SMILES | viability at 48 h, 50 µM |
| --- | --- |
| COc1cc(OC)c(C(=O)/C=C/c2ccc(F)cc2)c(OC)c1 | 78% |

system: NCI-H727; experiment: Cytotoxicity against human NCI-H727 cells assessed as cell viability after 48 hrs by Hoechst 33342 staining based assay; assay type: functional; conditions: NCI-H727, 48 h

| SMILES | pIC50 |
| --- | --- |
| COc1cc(OC)c(C(=O)/C=C/c2ccc(F)cc2)c(OC)c1 | 5.26 |

system: HCT-116; experiment: Induction of apoptosis in human HCT116 cells harboring wild-type p53 assessed as increase in late apoptosis at 2 times IC50 after 48 hrs by YoPro/propidium iodide/Hoechst staining based assay; assay type: functional, cell-based; conditions: not given

| SMILES | Activity |
| --- | --- |
| COc1cc(OC)c(C(=O)/C=C/c2ccc(F)cc2)c(OC)c1 | Active |

system: NCI-H727; experiment: Cell cycle arrest in human NCI-H727 cells harboring p53 mutant assessed as mitotic index at 10 uM measured after 48 hrs by Hoechst staining based fluorescence assay (reference value: 1.1); assay type: functional; conditions: not given

| SMILES | Activity_index |
| --- | --- |
| COc1cc(OC)c(C(=O)/C=C/c2ccc(F)cc2)c(OC)c1 | 1.1 |

system: Caco-2; experiment: Cell cycle arrest in human Caco2 cells assessed as accumulation at M phase by Hoechst staining based fluorescence assay; assay type: functional; conditions: not given

| SMILES | Activity |
| --- | --- |
| COc1cc(OC)c(C(=O)/C=C/c2ccc(F)cc2)c(OC)c1 | Active |

system: Fibroblast; experiment: Cytotoxicity against human fibroblasts assessed as cell viability after 48 hrs by Hoechst 33342 staining based assay; conditions: not given

| SMILES | pIC50 |
| --- | --- |
| COc1cc(OC)c(C(=O)/C=C/c2ccc(F)cc2)c(OC)c1 | < 4.70 |

system: Caco-2; experiment: Cell cycle arrest in human Caco2 cells assessed as accumulation at S phase at 10 uM measured after 48 hrs by Hoechst/BrdU staining based fluorescence assay (reference value: […]); assay type: functional; conditions: not given

| SMILES | Activity |
| --- | --- |
| COc1cc(OC)c(C(=O)/C=C/c2ccc(F)cc2)c(OC)c1 | 39% |

system: not listed separately; experiment: Selectivity index, ratio of IC50 for human fibroblasts to IC50 for human NCI-H727 cells; conditions: not given

| SMILES | Ratio IC50 |
| --- | --- |
| COc1cc(OC)c(C(=O)/C=C/c2ccc(F)cc2)c(OC)c1 | >9.1 |

system: MCF7; experiment: Induction of apoptosis in human MCF7 cells harboring wild-type p53 assessed as upregulation of p21 measured after 48 hrs by Hoechst staining based fluorescence assay; assay type: functional, cell-based; conditions: not given

| SMILES | Activity |
| --- | --- |
| COc1cc(OC)c(C(=O)/C=C/c2ccc(F)cc2)c(OC)c1 | Active |

system: PC-3; experiment: Induction of apoptosis in human PC3 cells harboring p53 mutant assessed as increase in early apoptosis at 2 times IC50 after 48 hrs by YoPro/propidium iodide/Hoechst staining based assay; assay type: functional, cell-based; conditions: not given

| SMILES | Activity |
| --- | --- |
| COc1cc(OC)c(C(=O)/C=C/c2ccc(F)cc2)c(OC)c1 | Active |

system: HCT-116; experiment: Induction of apoptosis in human HCT116 cells harboring wild-type p53 assessed as upregulation of cyclinB1 measured after 48 hrs by Hoechst staining based assay; assay type: functional, cell-based; conditions: not given

| SMILES | Activity |
| --- | --- |
| COc1cc(OC)c(C(=O)/C=C/c2ccc(F)cc2)c(OC)c1 | Active |

system: NCI-H727; experiment: Cell cycle arrest in human NCI-H727 cells harboring p53 mutant assessed as mitotic index at 25 uM measured after 48 hrs by Hoechst staining based fluorescence assay (reference value: 1.1); assay type: functional; conditions: not given

| SMILES | Activity_index |
| --- | --- |
| COc1cc(OC)c(C(=O)/C=C/c2ccc(F)cc2)c(OC)c1 | 0.4 |

system: HCT-116; experiment: Induction of apoptosis in human HCT116 cells harboring wild-type p53 assessed as increase in early apoptosis at 2 times IC50 after 48 hrs by YoPro/propidium iodide/Hoechst staining based assay; assay type: functional, cell-based; conditions: not given

| SMILES | Activity |
| --- | --- |
| COc1cc(OC)c(C(=O)/C=C/c2ccc(F)cc2)c(OC)c1 | Active |

system: PC-3; experiment: Cytotoxicity against human PC3 cells assessed as cell survival at 50 uM after 48 hrs by Hoechst 33342 staining based assay relative to control; assay type: functional; conditions: PC-3, 48 h, read-out: Survival

| SMILES | viability at 50 µM |
| --- | --- |
| COc1cc(OC)c(C(=O)/C=C/c2ccc(F)cc2)c(OC)c1 | 26% |

system: MCF7; experiment: Induction of apoptosis in human MCF7 cells harboring wild-type p53 assessed as upregulation of cyclinB1 measured after 18 hrs by Hoechst staining based assay; assay type: functional, cell-based; conditions: not given

| SMILES | Activity |
| --- | --- |
| COc1cc(OC)c(C(=O)/C=C/c2ccc(F)cc2)c(OC)c1 | Active |

system: not listed separately; experiment: Selectivity index, ratio of IC50 for human fibroblasts to IC50 for human HaCaT cells; conditions: not given

| SMILES | Ratio IC50 |
| --- | --- |
| COc1cc(OC)c(C(=O)/C=C/c2ccc(F)cc2)c(OC)c1 | >6.6 |

system: MDA-MB-231; experiment: Cell cycle arrest in human MDA-MB-231 cells harboring p53 mutant assessed as mitotic index at 25 uM measured after 48 hrs by Hoechst staining based fluorescence assay (reference value: 2.1); assay type: functional; conditions: not given

| SMILES | Activity_index |
| --- | --- |
| COc1cc(OC)c(C(=O)/C=C/c2ccc(F)cc2)c(OC)c1 | 4.8 |

system: Huh-7; experiment: Cytotoxicity against human HuH7 cells assessed as cell viability after 48 hrs by Hoechst 33342 staining based assay; assay type: functional; conditions: Huh-7, 48 h

| SMILES | pIC50 |
| --- | --- |
| COc1cc(OC)c(C(=O)/C=C/c2ccc(F)cc2)c(OC)c1 | 4.84 |

system: Caco-2; experiment: Cell cycle arrest in human Caco2 cells assessed as mitotic index at 10 uM measured after 48 hrs by Hoechst staining based fluorescence assay (reference value: 3.6); assay type: functional; conditions: not given

| SMILES | Activity_index |
| --- | --- |
| COc1cc(OC)c(C(=O)/C=C/c2ccc(F)cc2)c(OC)c1 | 32 |

system: PC-3; experiment: Induction of apoptosis in human PC3 cells harboring p53 mutant assessed as increase in cleaved caspase3 at 2 times IC50 after 48 hrs by Hoechst staining based assay; assay type: functional, cell-based; conditions: not given

| SMILES | Activity |
| --- | --- |
| COc1cc(OC)c(C(=O)/C=C/c2ccc(F)cc2)c(OC)c1 | Active |

system: MDA-MB-231; experiment: Induction of apoptosis in human MDA-MB-231 cells harboring p53 mutant assessed as increase in early apoptosis at 2 times IC50 after 24 hrs by YoPro/propidium iodide/Hoechst staining based assay; assay type: functional, cell-based; conditions: not given

| SMILES | Activity |
| --- | --- |
| COc1cc(OC)c(C(=O)/C=C/c2ccc(F)cc2)c(OC)c1 | Active |

system: HaCaT; experiment: Cell cycle arrest in human HaCaT cells harboring […] p53 assessed as mitotic index at 25 uM measured after 48 hrs by Hoechst staining based fluorescence assay (reference value: 2.6); assay type: functional; conditions: not given

| SMILES | Activity_index |
| --- | --- |
| COc1cc(OC)c(C(=O)/C=C/c2ccc(F)cc2)c(OC)c1 | 0 |

system: PC-3; experiment: Cytotoxicity against human PC3 cells assessed as cell viability after 48 hrs by Hoechst 33342 staining based assay; assay type: functional; conditions: PC-3, 48 h

| SMILES | pIC50 |
| --- | --- |
| COc1cc(OC)c(C(=O)/C=C/c2ccc(F)cc2)c(OC)c1 | 5.26 |

system: MDA-MB-231; experiment: Induction of apoptosis in human MDA-MB-231 cells harboring p53 mutant assessed as increase in cleaved caspase3 at 2 times IC50 after 24 hrs by Hoechst staining based assay; assay type: functional, cell-based; conditions: not given

| SMILES | Activity |
| --- | --- |
| COc1cc(OC)c(C(=O)/C=C/c2ccc(F)cc2)c(OC)c1 | Active |

system: PC-3; experiment: Cell cycle arrest in human PC3 cells harboring p53 mutant assessed as mitotic index at 25 uM measured after 48 hrs by Hoechst staining based fluorescence assay (reference value: 2.5); assay type: functional; conditions: not given

| SMILES | Activity_index |
| --- | --- |
| COc1cc(OC)c(C(=O)/C=C/c2ccc(F)cc2)c(OC)c1 | 0.4 |

system: Caco-2; experiment: Cell cycle arrest in human Caco2 cells assessed as mitotic index at 25 uM measured after 48 hrs by Hoechst staining based fluorescence assay (reference value: 3.6); assay type: functional; conditions: not given

| SMILES | Activity_index |
| --- | --- |
| COc1cc(OC)c(C(=O)/C=C/c2ccc(F)cc2)c(OC)c1 | 4.2 |

system: Huh-7; experiment: Cell cycle arrest in human HuH7 cells assessed as accumulation at S phase at 10 uM measured after 48 hrs by Hoechst/BrdU staining based fluorescence assay (reference value: 44%); assay type: functional; conditions: not given

| SMILES | Activity |
| --- | --- |
| COc1cc(OC)c(C(=O)/C=C/c2ccc(F)cc2)c(OC)c1 | 44% |

system: MDA-MB-231; experiment: Induction of apoptosis in human MDA-MB-231 cells harboring p53 mutant assessed as upregulation of cyclinB1 after 18 hrs by Hoechst staining based assay; assay type: functional, cell-based; conditions: not given

| SMILES | Activity |
| --- | --- |
| COc1cc(OC)c(C(=O)/C=C/c2ccc(F)cc2)c(OC)c1 | Active |

system: HCT-116; experiment: Cell cycle arrest in human HCT116 cells harboring wild-type p53 assessed as accumulation at S phase at 10 uM measured after 48 hrs by Hoechst/BrdU staining based fluorescence assay (reference value: 68.4%); assay type: functional; conditions: not given

| SMILES | Activity |
| --- | --- |
| COc1cc(OC)c(C(=O)/C=C/c2ccc(F)cc2)c(OC)c1 | 23% |
